Where a chain is given by its changes, count along the chain named. Where a SMILES comes first, the peptide text is derived from it.
Experiments:
[1] = target: T1, hTAS1R2 + hTAS1R3 F730L^5.43 (Homo sapiens, UniProt Q7RTX0+Q8TE23, F730L); assay: Calcium response (FLIPR), hTAS1R3 mutant coexpressed with hTAS1R2; assay type: cell-based; conditions: variant F730L^5.43; for Emax: read-out: maximal signal (% of wt)
T1 construct: expressed in transfected cells; host or cells: HEK293T cells stably expressing G16Gust44
T1 sequence (Q8TE23 20-839): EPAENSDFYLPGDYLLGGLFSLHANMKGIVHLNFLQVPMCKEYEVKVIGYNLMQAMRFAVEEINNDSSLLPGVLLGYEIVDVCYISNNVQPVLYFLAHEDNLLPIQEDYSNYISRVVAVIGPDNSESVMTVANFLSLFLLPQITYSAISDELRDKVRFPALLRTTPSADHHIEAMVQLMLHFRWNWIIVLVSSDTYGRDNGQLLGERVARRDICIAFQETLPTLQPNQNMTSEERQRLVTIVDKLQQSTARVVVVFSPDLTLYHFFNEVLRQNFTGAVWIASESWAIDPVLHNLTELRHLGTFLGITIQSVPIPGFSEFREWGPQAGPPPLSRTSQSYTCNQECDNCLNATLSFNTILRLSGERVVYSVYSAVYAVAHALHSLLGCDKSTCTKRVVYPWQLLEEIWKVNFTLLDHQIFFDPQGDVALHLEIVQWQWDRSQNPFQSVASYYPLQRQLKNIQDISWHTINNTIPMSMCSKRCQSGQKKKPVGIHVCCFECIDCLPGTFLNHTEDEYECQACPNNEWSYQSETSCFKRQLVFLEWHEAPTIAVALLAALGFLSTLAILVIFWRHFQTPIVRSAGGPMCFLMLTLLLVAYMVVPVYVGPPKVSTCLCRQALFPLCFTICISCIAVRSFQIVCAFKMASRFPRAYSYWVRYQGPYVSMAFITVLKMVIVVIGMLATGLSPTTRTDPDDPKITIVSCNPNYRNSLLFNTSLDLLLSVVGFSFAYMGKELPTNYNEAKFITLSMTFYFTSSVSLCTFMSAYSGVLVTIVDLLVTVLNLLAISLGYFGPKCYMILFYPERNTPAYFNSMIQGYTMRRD
T1 sequence (Q7RTX0 21-852 F730L): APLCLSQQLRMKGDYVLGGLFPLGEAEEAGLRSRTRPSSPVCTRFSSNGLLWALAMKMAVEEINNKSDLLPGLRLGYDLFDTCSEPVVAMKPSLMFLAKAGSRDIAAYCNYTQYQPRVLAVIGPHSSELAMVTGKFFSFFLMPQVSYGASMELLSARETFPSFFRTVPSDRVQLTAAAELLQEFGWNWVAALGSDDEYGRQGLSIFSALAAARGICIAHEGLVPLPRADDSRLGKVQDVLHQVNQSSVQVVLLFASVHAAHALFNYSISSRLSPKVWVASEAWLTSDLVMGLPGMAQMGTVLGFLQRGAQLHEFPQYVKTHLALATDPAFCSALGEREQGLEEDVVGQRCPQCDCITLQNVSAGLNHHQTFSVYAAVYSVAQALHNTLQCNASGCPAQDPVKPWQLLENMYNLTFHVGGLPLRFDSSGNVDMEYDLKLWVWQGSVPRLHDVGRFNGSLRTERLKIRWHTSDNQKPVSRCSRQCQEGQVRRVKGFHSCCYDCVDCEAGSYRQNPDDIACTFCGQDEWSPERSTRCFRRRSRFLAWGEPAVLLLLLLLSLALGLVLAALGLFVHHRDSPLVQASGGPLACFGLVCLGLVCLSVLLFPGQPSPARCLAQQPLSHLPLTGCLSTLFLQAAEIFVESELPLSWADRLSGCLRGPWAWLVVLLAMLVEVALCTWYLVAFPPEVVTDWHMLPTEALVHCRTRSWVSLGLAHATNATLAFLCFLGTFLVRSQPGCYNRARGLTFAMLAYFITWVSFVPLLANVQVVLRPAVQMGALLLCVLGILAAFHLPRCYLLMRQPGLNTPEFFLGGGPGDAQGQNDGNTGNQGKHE
In short: (§1)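 Each mutant receptor pair was expressed transiently in G16Gust44-expressing HEK293T cells; stimuli dissolved in C1 solution triggered calcium responses, recorded by fluorometric imaging and scaled to baseline fluorescence (ΔF/F) after mock correction, from at least three experiments run in duplicate.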

[2] = target: T2, hTAS1R2 + hTAS1R3 H641A^3.33 (Homo sapiens, UniProt Q7RTX0+Q8TE23, H641A); assay: as above; assay type: cell-based; conditions: variant H641A^3.33; for Emax: read-out: maximal signal (% of wt)
T2 construct: expressed in transfected cells; host or cells: HEK293T cells stably expressing G16Gust44
T2 sequence (Q8TE23 20-839): T1 sequence (Q8TE23 20-839)
T2 sequence (Q7RTX0 21-852 H641A): T1 sequence (Q7RTX0 21-852 F730L) with H621A, L710F
In short: as §1

Compound: COc1ccc(CCC(=O)c2c(O)cc(O[C@@H]3O[C@H](CO)[C@@H](O)[C@H](O)[C@H]3O[C@@H]3O[C@@H](C)[C@H](O)[C@@H](O)[C@H]3O)cc2O)cc1O [NHDC, neohesperidin dihydrochalcone]
- EC50 [1]: 900 ± 100 µM
- Emax [1]: 70 ± 18%
- EC50 [2]: 1200 ± 400 µM
- Emax [2]: 57 ± 22%

Compound: COC(=O)[C@H](Cc1ccccc1)NC(=O)[C@@H](N)CC(=O)O [aspartame] (HELM PEPTIDE1{D.F.[CO[*:1]]}$$$$V2.0)
- EC50 [1]: 1700 ± 400 µM
- Emax [1]: 87 ± 27%
- EC50 [2]: 1800 ± 400 µM
- Emax [2]: 79 ± 70%

— article PMC2099433, “The binding site for neohesperidin dihydrochalcone at the human sweet taste receptor” (BMC Structural Biology, 2007)
